Assay results from paper PMC6881558 (Biochimica et biophysica acta. General subjects, 2019).
“And” between values parts separate entries of the source, which are not always exact repeats. Identical values can stand only once.

Assays:
[1] = system: B. burgdorferi strain N40; test: BacTiter-Glo bioluminescent cell viability assay; assay type: cell-based, Borrelia burgdorferi; conditions: Borreliella burgdorferi, N40, 24 h, read-out: IC50 (cell viability)
MtnN = MtnN (Borrelia burgdorferi, UniProt O50860); test: UV spectrophotometric MTN activity and kinetics assay, MtnN; assay type: biochemical; conditions: pH 7, mean ± SEM; for Km: substrate kinetics
Pfs = Pfs (Borrelia burgdorferi, UniProt O50162); test: UV spectrophotometric MTN activity and kinetics assay, Pfs; assay type: biochemical; conditions: pH 5, mean ± SEM; for Km: substrate kinetics
Bgp = Bgp (Borrelia burgdorferi, UniProt Q9F952); test: UV spectrophotometric MTN activity and kinetics assay, Bgp; assay type: biochemical; conditions: pH 7, mean ± SEM; for Km: substrate kinetics
[2] = system: C[C@H]1O[C@@H](n2cnc3c(N)ncnc32)[C@H](O)[C@@H]1O; test: as above; assay type: biochemical, Borrelia burgdorferi; conditions: other: Bgp, substrate kinetics, pH 7, mean ± SEM
Trichomonas vaginalis = conditions: cultured parasites; cited from earlier work
Plasmodium falciparum = conditions: purine-less cell death in malarial cultures; cited from earlier work
[3] = substrate: C[C@H]1O[C@@H](n2cnc3c(N)ncnc32)[C@H](O)[C@@H]1O; test: UV spectrophotometric MTN activity and kinetics assay, MtnN; assay type: biochemical, Borrelia burgdorferi; conditions: other: MtnN, substrate kinetics, pH 7, mean ± SEM
[4] = substrate: C[C@H]1O[C@@H](n2cnc3c(N)ncnc32)[C@H](O)[C@@H]1O; test: UV spectrophotometric MTN activity and kinetics assay, Pfs; assay type: biochemical, Borrelia burgdorferi; conditions: other: Pfs, substrate kinetics, pH 5, mean ± SEM

In the case of `CC1(C)S[C@@H]2[C@H](NC(=O)[C@H](N)c3ccccc3)C(=O)N2[C@H]1C(=O)O` [ampicillin], the IC50 [1] is reported as 1.07 µg/mL and 3.01 µM.

In the case of 5’-methylthioadenosine [MTA], the kcat (MtnN) is reported as 1.55 ± 0.083 s⁻¹, the Km (MtnN) is reported as 9.1 µM and 9.09 µM and the kcat (Pfs) is reported as 1.78 ± 0.05 s⁻¹. It also gave a Km (Pfs) of 0.61 ± 0.16 µM, a kcat (Bgp) of 1.85 ± 0.333 s⁻¹ and a Km (Bgp) of 0.49 ± 0.01 µM.

For `Nc1ncnc2c1ncn2[C@@H]1O[C@H](CSCC[C@H](N)C(=O)O)[C@@H](O)[C@H]1O` [SAH, S-adenosylhomocysteine], the kcat (MtnN) was 0.55 ± 0.017 s⁻¹, the Km (MtnN) was 2.04 ± 0.44 µM and the kcat (Pfs) was 1.57 ± 0.083 s⁻¹. The Km (Pfs) was 0.75 ± 0.16 µM, the kcat (Bgp) was 1.75 ± 0.2 s⁻¹ and the Km (Bgp) was 1.96 ± 0.67 µM.

For Bgp (Borreliella burgdorferi), the Km [2] was 1.79 ± 0.52 µM, the kcat [2] was 1.53 ± 0.467 s⁻¹ and the kcat/Km [2] was 850000 ± 267000 M⁻¹ s⁻¹.

For `CCCCSCC1CN(Cc2c[nH]c3c(N)ncnc23)CC1O` (centres unmarked) [BuT-DADMe-ImmA, 1-[(9-deazaadenin-9-yl)methyl]-3-hydroxy-4-(butylthiomethyl)pyrrolidine], the IC50 [1] was 0.38 µg/mL and ~100 nM.

For `CSCC1CN(Cc2c[nH]c3c(N)ncnc23)CC1O` (centres unmarked) [MT-DADMe-ImmA, 1-[(9-deazaadenin-9-yl)methyl]-3-hydroxy-4-(methylthiomethyl) pyrrolidine], the IC50 [1] was 0.31 µg/mL and ~100 nM.

For `Nc1nc(F)nc2c1ncn2[C@H]1C[C@H](O)[C@@H](CO)O1` [2-fluoro-2’-deoxyadenosine], the IC50 (Trichomonas vaginalis) is listed as 106 nM.

In the case of `Nc1ncnc2c(C3N[C@H](CO)[C@@H](O)[C@H]3O)c[nH]c12` (some centres unmarked) [Immucillin-A (ImmA), Immucillin-A], the IC50 (Plasmodium falciparum) is listed as 35 nM.

B1: MtnN (Borreliella burgdorferi B31) (protein)
chain: NESKINTPNENSQSNILIISATKAEIEEINKIIQNKKYISIEEHRRKKKIAIGKLMDHNIITIATGVGKINTALWTSYIISKYKISHIINAGVASGIYSDKNKFIKIGDVVISTETTSYDFDLHRFGYEIGHVPEHPKKFKANTALIRKTSKIKINNITSYMGLIITGDQFIDHQTFQEIPEEFENAIAIDMESAAMAQVAYGFKIPFIIIRGISDIVNNENNYDDYKKFLKKASSSSAKIVENLIKLM
In the case of B1, the Km [3] is reported as 10.5 µM and 10.46 ± 0.75 µM, the kcat [3] is reported as 0.733 ± 0.0167 s⁻¹ and the kcat/Km [3] is reported as 66700 ± 5000 M⁻¹ s⁻¹.

B2: Pfs (Borreliella burgdorferi B31) (protein)
chain: MILIISAMQEESEEINKILDNKEEIVLNDYLENKKIYKGKILGKDVISLTTGIGKVNAATWSSQIISKYKITHIINSGSSGGIKENSNLKILDIIVSSETAYYDFDLTKFGHKIGQVPNLPQKFKADEELLKKVANIVDNKLLNIDIHIGLILTGDQFVDNEKNLETIKKNFKDALAVDMEGAAIAQVAHIFKIPFIIIRSISDLPNNKDNHIDFNKFLKTSSINSSKMTKELIRLI
With B2 the Km [4] was 1.37 ± 0.37 µM, the kcat [4] was 2.7 ± 0.15 s⁻¹ and the kcat/Km [4] was 1.97e+06 ± 400000 M⁻¹ s⁻¹.
